Bridge positions count the residues as written; N and C are the ends. Square brackets hold non-standard residues; d marks the D form. Peptide text beside a SMILES is read from it. * marks the point of attachment. Ileψ(thiazoline)Cys = CC[C@H](C)[C@H](N)C1=N[C@H](C(=O)*)CS1; dOrn = NCCC[C@@H](N)C(=O)O
test system: Staph. aureus HH 127; test: in vivo activity against intraperitoneal infection in mice (ED50); settings: Staphylococcus aureus, HH127, read-out: ED₅₀
Method: The ED₅₀'s were as follows: AAD 216 aglycone, 7.6 mg/kg; AAD 216 pseudo- aglycone, 7.6 mg/kg; AAD 216A pseudoaglycone, 5.0 mg./kg; vancomycin, 1.56 mg/kg. Similarly, the ED₅₀'s of AAD 216A pseudoaglycone, AAD 216B pseudoaglycone, AAD 216C pseudoaglycone and vancomycin, determined by utilizing a similar protocol, were 12.5 mg/kg, 7.6 mg/kg, 10.8 mg/kg and 1.92 mg/kg, respectively.

**Q.** With `CNC1C(=O)NC2C(=O)NC(C(=O)NC3C(=O)NC4C(=O)NC(C(=O)NC(C(=O)O)c5cc(O)cc(O)c5-c5cc4ccc5O)C(O)c4cc(Cl)c(c(Cl)c4)Oc4cc3cc(c4O)Oc3ccc(cc3Cl)C2O)c2cc(cc(O)c2Cl)Oc2cc1ccc2O` (stereo not shown) [AAD 216 aglycone] as the molecule, how does the ED50 read?
**A.** 7.6 mg/kg

test system: K. aridum; test: susceptibility of K. aridum to antibiotic disks (diffusion method); assay type: cell-based, Kibdelosporangium aridum; settings: BBL susceptibility disks, content per antibiotic; one week at 28°C
Method: Susceptibility of K. aridum to antibiotics was examined by placing BBL susceptibility disks on nutrient agar plates seeded with K. aridum as an overlay. Diameters of the zones of inhibition were measured after incubation for one week at 28°C.
Susceptibility to Antibiotics. By the diffusion method, K. aridum was resistant to disks impregnated with gentamicin (10 µg), tobramycin (10 µg), streptomycin (10 µg), vancomycin (30 µg), penicillin (10 units), bacitracin (2 units), lincomycin (2 µg), clindamycin (2 µg), and cephalothin (30 µg). Chlortetracycline (5 µg) produced 18 mm zones of inhibition; tetracycline (5 µg) 11-12 mm zones; rifampin (5 µg) 11-15 mm zones; novobiocin (5 µg) 27-28 mm zones. All zones of inhibition contained at least a few resistant colonies.

**Q.** With penicillin as the molecule, how does the “susceptibility by the diffusion method (in words)” value (from here on “susceptibility”) read?
**A.** resistant

**Q.** `CCC[C@@H]1C[C@@H](C(=O)N[C@@H]([C@H]2O[C@H](SC)[C@H](O)[C@@H](O)[C@H]2O)[C@@H](C)O)N(C)C1` [lincomycin] was tested. Which “susceptibility” value did it give?
**A.** resistant

**Q.** `CC[C@H](C)[C@H](N)C1=N[C@H](C(=O)N[C@@H](CC(C)C)C(=O)N[C@H](CCC(=O)O)C(=O)N[C@H](C(=O)N[C@H]2CCCCNC(=O)[C@H](CC(N)=O)NC(=O)[C@@H](CC(=O)O)NC(=O)[C@H](Cc3cnc[nH]3)NC(=O)[C@@H](Cc3ccccc3)NC(=O)[C@H]([C@@H](C)CC)NC(=O)[C@@H](CCCN)NC2=O)[C@@H](C)CC)CS1` [bacitracin] ({Ileψ(thiazoline)Cys}-L[dE]IK[dOrn]I[dF]H[dD]N; lactam 4-C) was tested. Which “susceptibility” value did it give?
**A.** resistant

**Q.** For `NC[C@H]1O[C@H](O[C@H]2[C@H](O)[C@@H](O[C@H]3O[C@H](CO)[C@@H](O)[C@H](N)[C@H]3O)[C@H](N)C[C@@H]2N)[C@H](N)C[C@@H]1O` [tobramycin], which “susceptibility” value is on record?
**A.** resistant

**Q.** `CN[C@H](CC(C)C)C(=O)N[C@H]1C(=O)N[C@@H](CC(N)=O)C(=O)N[C@H]2C(=O)N[C@H]3C(=O)N[C@H](C(=O)N[C@H](C(=O)O)c4cc(O)cc(O)c4-c4cc3ccc4O)[C@H](O)c3ccc(c(Cl)c3)Oc3cc2cc(c3O[C@@H]2O[C@H](CO)[C@@H](O)[C@H](O)[C@H]2O[C@H]2C[C@](C)(N)[C@H](O)[C@H](C)O2)Oc2ccc(cc2Cl)[C@H]1O` [vancomycin] was tested. Which “susceptibility” value did it give?
**A.** resistant

**Q.** For gentamicin, which “susceptibility” value is on record?
**A.** resistant

**Q.** How did the “susceptibility” value turn out when `CC(=O)OCC1=C(C(=O)O)N2C(=O)[C@@H](NC(=O)Cc3cccs3)[C@H]2SC1` [cephalothin] was run?
**A.** resistant

**Q.** `[H]/N=C(/N)N[C@H]1[C@H](O)[C@@H](O)[C@H](O[C@@H]2O[C@@H](C)[C@](O)(C=O)[C@H]2O[C@@H]2O[C@@H](CO)[C@H](O)[C@@H](O)[C@@H]2NC)[C@@H](N/C(N)=N\[H])[C@@H]1O` [streptomycin] was tested. Which “susceptibility” value did it give?
**A.** resistant

same assay, conditions: disk 5 µg; nutrient agar seeded with K. aridum, one week at 28°C; zones contained a few resistant colonies

**Q.** Which zones of inhibition does the source give for `CO[C@H]1/C=C/O[C@@]2(C)Oc3c(C)c(O)c4c(O)c(c(/C=N/N5CCN(C)CC5)c(O)c4c3C2=O)NC(=O)/C(C)=C\C=C\[C@H](C)[C@H](O)[C@@H](C)[C@@H](O)[C@@H](C)[C@H](OC(C)=O)[C@@H]1C` [rifampin] here?
**A.** 11-15 mm

**Q.** With `CN(C)[C@@H]1C(O)=C(C(N)=O)C(=O)[C@@]2(O)C(O)=C3C(=O)c4c(O)cccc4[C@@](C)(O)[C@H]3C[C@@H]12` [tetracycline] as the molecule, how does the zones of inhibition read?
**A.** 11-12 mm

**Q.** With `CO[C@@H]1[C@@H](OC(N)=O)[C@@H](O)[C@H](Oc2ccc3c(O)c(NC(=O)c4ccc(O)c(CC=C(C)C)c4)c(=O)oc3c2C)OC1(C)C` [novobiocin] as the molecule, how does the zones of inhibition read?
**A.** 27-28 mm

**Q.** `CN(C)[C@@H]1C(O)=C(C(N)=O)C(=O)[C@@]2(O)C(O)=C3C(=O)c4c(O)ccc(Cl)c4[C@@](C)(O)[C@H]3C[C@@H]12` [Chlortetracycline] was tested. Which zones of inhibition did it give?
**A.** 18 mm

From patent publication EP0211490B1, “Antibiotics of the vancomycin-class” (SMITHKLINE BEECHAM CORPORATION, priority 1985, dated 1987)
